Reference: patent US20240271096A1, “EFFICIENT DIFFERENTIATION OF SECOND HEART FIELD CARDIAC PROGENITOR CELLS AND RIGHT VENTRICLE CARDIOMYOCYTES FROM HUMAN PLURIPOTENT STEM CELLS” (Wisconsin Alumni Research Foundation, priority 2023, published 2024)

Legend:
Assay type in all cases: cell-based, human
reporterless hiPSC line = experiment: Immunostaining of marker proteins in hiPSC-derived cardiac progenitor cells and cardiomyocytes
Experimental: For LV-cardiomyocyte differentiation, cardiac differentiation was performed according to the protocol published by (Lian et al., 2012, Proc Natl Acad Sci USA 109:[…]-57). Cells were dissociated with StemPro Accutase Cell Dissociation Reagent at 37° C. for 5 minutes. HESCs were seeded on Matrigel-coated 24-well plates (Corning) in StemFlex Medium supplemented with 10 μmol/[…] were seeded on iMatrix-511-coated 12-well plates (Corning) in StemFit A[…] supplemented with 10 μmol/[…] at seeding densities of 1×10^5 cells/cm^2 for hESCs and 1.25-2.5×10^4 cells/cm^2 for hiPSCs. Cells were cultured for 4 days until the start of differentiation (day 0). On day 0, the medium was changed to RPMI 1640 Medium (Thermo Fisher Scientific) supplemented with B-27 Supplement minus insulin (Thermo Fisher Scientific) (RPMI/B27-insulin) or B-27 Supplement with insulin (Thermo Fisher Scientific), and 12 μmol/L CHIR 99021 (SelleckChem, Houston, TX, United States), and the cells incubated in this medium for 24 h (day 1). On day 1, the medium was changed to RPMI/B27-insulin. […] On day 3, the medium was changed to RPMI/B27-insulin supplemented with 5 μmol/L IWP2 (SelleckChem) and on day 5, the medium was changed to 1 ml RPMI/B27-insulin. From day 7, the cells were cultured with RPMI/B27-insulin, and the cells were fed every other day. On day 12, the cells were washed with PBS (Thermo Fisher Scientific) and cultured with DMEM or RPMI, no glucose supplemented with 8 mmol/L L-(+)-Lactic acid (Merck) (Tohyama et al., 2013 Cell Stem Cell, 12:127-37). The medium was changed every other day until day 17. After day 17, the cells were cultured with RPMI/B27 and fed every 2 to 3 days. For long-term culture, the cells were dissociated with TrypLETM Select Enzyme (10×) (Thermo Fisher Scientific) at 37° C. for 15-20 minutes and seeded on Matrigel- or iMatrix-511-coated plates. […] For FIG. 15A and FIG. 15B, dorsomorphin (DM) or 3 μg/L insulin were added on day 0 (for 24 hours), 1, 3, or 5 (for 48 hours). Cells were plated on iMatrix-511-coated plates and fixed in 4% paraformaldehyde (Nacalai, Kyoto, Japan) for 15 minutes. Cells were permeabilized with 0.1% Triton X-100 (Sigma-Aldrich, St. Louis, MO, United States)/PBS and blocked with 10% goat serum (Sigma-Aldrich). Primary and secondary antibodies were diluted in 0.1% Triton X-100/PBS with 5% goat serum and stained with Hoechst 33342 (Thermo Fisher Scientific) at 1 μg/mL, mouse anti-cardiac troponin T monoclonal IgG1 (GTX28295, GeneTex, Irvine, CA, United States) diluted at 1:16000, mouse anti-α-actinin monoclonal IgG1 (A7811, Sigma-Aldrich) diluted at 1:1000, rabbit anti-MLC2v monoclonal IgG (ab92721, Abcam, Cambridge, United Kingdom) diluted at 1:500, rabbit anti-CXCR4 monoclonal IgG (ab181020, Abcam) diluted at 1:2000, rabbit anti-NKX2-5 monoclonal IgG (Cat #. […], Cell Signaling Technology, Danvers, MA, United States) diluted at 1:2500, mouse anti-Nav1.5 (Car #. ASC-013, Alomone Labs) diluted at 1:1000, rabbit anti-connexin 43 (Cat #. 83649, Cell Signaling Technology) diluted at 1:1000, and mouse anti-TBX5 monoclonal IgG2a (Cat #. sc-515536, Santa Cruz Biotechnology, Dallas, TX, United States) diluted at 1:500. These cells were then incubated with a secondary antibody, goat anti-mouse or rabbit polyclonal IgG conjugated with iFluor 488 or 555 (AAT Bioquest, Sunnyvale, CA, United States) diluted at 1:1000, for 1 hour at room temperature. The cells were then observed with IX71 (Olympus, Tokyo, Japan) or EVOS FL Auto (Thermo Fisher Scientific) and images processed with ImageJ ([…] al., 2012, Nat Methods, 9:671-5).

hPSC-CMs = experiment: Quantitative PCR of purified hiPSC-derived cardiomyocytes; settings: DMH1-treated cell-derived cardiomyocytes at day 34
Experimental: For LV-cardiomyocyte differentiation, cardiac differentiation was performed according to the protocol published by (Lian et al., 2012, Proc Natl Acad Sci USA 109:[…]-57). Cells were dissociated with StemPro Accutase Cell Dissociation Reagent at 37° C. for 5 minutes. HESCs were seeded on Matrigel-coated 24-well plates (Corning) in StemFlex Medium supplemented with 10 μmol/[…] were seeded on iMatrix-511-coated 12-well plates (Corning) in StemFit A[…] supplemented with 10 μmol/[…] at seeding densities of 1×10^5 cells/cm^2 for hESCs and 1.25-2.5×10^4 cells/cm^2 for hiPSCs. Cells were cultured for 4 days until the start of differentiation (day 0). On day 0, the medium was changed to RPMI 1640 Medium (Thermo Fisher Scientific) supplemented with B-27 Supplement minus insulin (Thermo Fisher Scientific) (RPMI/B27-insulin) or B-27 Supplement with insulin (Thermo Fisher Scientific), and 12 μmol/L CHIR 99021 (SelleckChem, Houston, TX, United States), and the cells incubated in this medium for 24 h (day 1). On day 1, the medium was changed to RPMI/B27-insulin. […] PowerUpTM SYBR Green Master Mix (Thermo Fisher Scientific) and QuantStudio 1 (Thermo Fisher Scientific) were used for quantitative PCR (q-PCR), wherein q-PCR data were processed using the ΔΔCT method. […] Data were analyzed with the web-based tool of GeneGlobe Data Analysis Center (Qiagen).

hiPSC-derived cells = experiment: Flow cytometry of cardiac troponin T (cTnT); settings: 1 μmol/L on day 0; day 12; n=4; mean±SD; control 82.1±2.6%, p=0.04
Experimental: For LV-cardiomyocyte differentiation, cardiac differentiation was performed according to the protocol published by (Lian et al., 2012, Proc Natl Acad Sci USA 109:[…]-57). Cells were dissociated with StemPro Accutase Cell Dissociation Reagent at 37° C. for 5 minutes. HESCs were seeded on Matrigel-coated 24-well plates (Corning) in StemFlex Medium supplemented with 10 μmol/[…] were seeded on iMatrix-511-coated 12-well plates (Corning) in StemFit A[…] supplemented with 10 μmol/[…] at seeding densities of 1×10^5 cells/cm^2 for hESCs and 1.25-2.5×10^4 cells/cm^2 for hiPSCs. Cells were cultured for 4 days until the start of differentiation (day 0). On day 0, the medium was changed to RPMI 1640 Medium (Thermo Fisher Scientific) supplemented with B-27 Supplement minus insulin (Thermo Fisher Scientific) (RPMI/B27-insulin) or B-27 Supplement with insulin (Thermo Fisher Scientific), and 12 μmol/L CHIR 99021 (SelleckChem, Houston, TX, United States), and the cells incubated in this medium for 24 h (day 1). On day 1, the medium was changed to RPMI/B27-insulin. […] On day 3, the medium was changed to RPMI/B27-insulin supplemented with 5 μmol/L IWP2 (SelleckChem) and on day 5, the medium was changed to 1 ml RPMI/B27-insulin. […] The cells were resuspended in 0.5% bovine serum albumin (Merck)/PBS and analyzed with an Attune NxT Flow Cytometer (Thermo Fisher Scientific).

Structure (SMILES)	CXCR4 expression (immunostaining) (reporterless hiPSC line; 0.5 μmol/L on day 0, day 7)	MLC2v, ventricular marker protein (immunostaining) (reporterless hiPSC line; 0.5 μmol/L on day 0, day 35)	NKX2-5-positive/cTnT-positive cardiomyocytes (reporterless hiPSC line; DMH1 on differentiation day 0, day 10)	TBX5 expression (immunostaining) (reporterless hiPSC line; DMH1 on differentiation day 0, day 10, dose-dependent)	immunostaining signal of Nav1.5 and Connexin 43 (reporterless hiPSC line; cardiomyocytes day 34, vs control)	expression of TGFB1, COL1A1, COL1A2, COL3A1, and COL5A1 (qPCR) (hPSC-CMs)	percentages of cTnT-positive cells (hiPSC-derived cells) [%]
CC(C)Oc1ccc(-c2cnc3c(-c4ccnc5ccccc45)cnn3c2)cc1 [DMH1, dorsomorphin homologue 1, reference compound]	upregulated	expressed	induced	reduced	reduction	reduced	
c1cc(-c2cnn3cc(-c4ccc(OCCN5CCCCC5)cc4)cnc23)ccn1 [dorsomorphin]							70.4±7.3
